Tests used:
[1] = Absorption of aldehyde by stabilizer (Experiment 4); assay type: physicochemical; details: for Residual rate of formaldehyde in the cup: 25° C. for 2 days, 1 g meglumine powder enclosed
Protocol: Meglumine powder (1 g) was stored in a sealed stoppered glass test tube together with a cup containing an aqueous formaldehyde solution (2 ml) (containing potassium iodide for adjusting moisture) in various concentrations (see FIG. 4). For a comparative control, a cup containing an aqueous formaldehyde solution (2 ml) (containing potassium iodide for adjusting moisture) in various concentrations was put into a sealed stoppered glass test tube without meglumine. The test tubes were stored at 25° C. or 40° C. for 2 days, and the residual amount of formaldehyde in the cup was measured in a similar manner to Experiment 1.

[2] = Reaction of Compound A powder with formaldehyde vapour, related substances by HPLC (Experiment 2); assay type: physicochemical; details: 50° C. for 14 days
Protocol: When Compound A powder (2 mg) was stored in a sealed stoppered glass test tube together with a cup containing an aqueous formaldehdye solution (1 ml) in various concentrations (see FIG. 2), and stored at 50° C. for 14 days, the generated amount of related substances of Compound A was measured. The generated amount of the related substances was measured by dissolving Compound A powder (2 mg) in methanol (200 ml) to give a test solution, and applying 10 μl thereof to high performance liquid chromatograph under the following conditions. The percentage ratio of the peak area of the related substances to the total peak area including that of Compound A was regarded as the generation amount thereof.
Conditions for High Performance Liquid Chromatograph:
Column: Develosil ODS-5 (inner diameter: 4.6 mm×150 mm, manufactured by NOMURA CHEMICAL CO., LTD.)
Mobile phase: Mixture of 0.01M citric acid buffer (pH 2.5):acetonitrile (75:25)
Detector: Ultraviolet-visible spectrophotometer (wave length for detection: 220 nm)
Temperature: Constant temperature around 40° C.

Residual ratio of formaldehyde in the cup compared to without meglumine (in words) ([1]; after storage)	Residual rate of formaldehyde in the cup ([1]; formaldehyde 0.1 μg/ml) [%]	Residual rate of formaldehyde in the cup ([1]; formaldehyde 0.5 μg/ml) [%]	Residual rate of formaldehyde in the cup ([1]; formaldehyde 1 μg/ml) [%]	Structure (SMILES)	Generated amount of related substances ([2]; aldehyde concentration in the cup: Not detected)	Generated amount of related substances ([2]; aqueous formaldehyde in the cup 0.0625 μg/ml)	Generated amount of related substances ([2]; aqueous formaldehyde in the cup 0.125 μg/ml) [%]	Generated amount of related substances ([2]; aqueous formaldehyde in the cup 0.25 μg/ml) [%]	Generated amount of related substances ([2]; aqueous formaldehyde in the cup 0.5 μg/ml) [%]	Generated amount of related substances ([2]; aqueous formaldehyde in the cup 1.0 μg/ml) [%]
apparently lowered	85.1	75.5	70.7	CNC[C@H](O)[C@@H](O)[C@H](O)[C@H](O)CO [meglumine]						
				C[C@H](Cc1c[nH]c2c(OCC(=O)O)cccc12)NC[C@H](O)c1cccc(Cl)c1 [Compound A, [3-[(2R)-[[(2R)-(3-chlorophenyl)-2-hydroxyethyl]amino]propyl]-1H-indol-7-yleoxy]acetic acid]	Not detected	Not detected	0.031	0.063	0.091	0.136

Reference: US20050267222A1, “Stabilized composition” (DAINIPPON PHARMACEUTICAL CO. LTD., priority 2002, published 2005)
